Experimental data taken from PMC12138128 (Acta Pharmaceutica Sinica. B, 2025).

How the values were obtained:
[1] = test system: U87 xenograft; assay: U87 xenograft model in nude mice; assay type: in vivo, nude mice (BALB/c-nude); details: for inhibitory effect in terms of tumor weight / inhibitory effect based on tumor volume: i.g.; for inhibitory effect in terms of tumor weight: 14th day; for inhibitory effect based on tumor volume: daily for 14 days
Method: (§1) Six-week-old female athymic nude mice (BALB/c-nude) were obtained from GemPharmatech (Beijing, China). U87 cells (3 × 10^6 cells per animal) were injected into the rear right armpit of nude mice to generate xenograft tumors. Seven to ten days after injection, the tumors were visible to the naked eye (approximately 100 mm^3), and the mice were randomized into five groups (12 mice per group). The PF403 treatment groups were administered different doses of PF403 once daily via intragastric gavage (low dose, 3 mg/kg; median dose, 6 mg/kg; high dose, 12 mg/kg). The positive control drug used was temozolomide (50 mg/kg, i.g., Days 1–5), the first line of glioma treatment, while the control group was treated with 0.5% CMC-Na solution as a control. To validate the NAMPT knockdown group, we established the following groups: a control group (vehicle control, i.g., once daily, n = 12), a shNAMPT-2 knockdown group (vehicle control, i.g., once daily, n = 12), and a shNAMPT-2 knockdown group treated with CAT3 (6 mg/kg, i.g., once daily, n = 12). The body weights of the nude mice were recorded every two days, and the tumor weights were recorded on the 14th day after the mice were sacrificed.
(§2) IHC was performed following standard protocols. Briefly, the standard protocol for Ki67 immunohistochemical staining involved tissue preparation, deparaffinization and rehydration, antigen retrieval, blocking, primary and secondary antibody incubations, visualization with DAB, counterstaining, mounting, microscopic examination, and image acquisition. To assess proliferation rates in tissue samples, the area of Ki67 expression was used for comparison in each group.

[2] = test system: shNAMPT-2 U87 xenograft; assay: shNAMPT-2 U87 (NAMPT-knockdown) xenograft model; assay type: in vivo, nude mice (BALB/c-nude)
Method: as §1, §2

[3] = test system: shNAMPT-2 U87 orthotopic glioma; assay: Orthotopic glioma model with shNAMPT-2 U87 cells, MRI; assay type: in vivo, nude mice (BALB/c-nude)
Method: For the orthotopic glioma model, six-week-old female athymic nude mice (BALB/c-nude) were obtained from GemPharmatech (Beijing, China). Anesthetize nude mice with tribromoethanol at a concentration of 20 mg/mL and a dosage of 0.2 mL/10 g body weight. U87 cells (shNAMPT-2, 5 × 10^5 cells) suspended in 5 μL PBS buffer were injected intracranially into nude mice using stereotaxic restraint. The location was bregma +1.0 mm, right lateral 2.0 mm, profundity 3.5 mm, and return to 3.0 mm. After 3 days, 6 mg/kg of CAT3 was orally administered once daily for 11 days. Intracranial tumors were viewed using MRI. The body weights of mice were monitored once every 2 or 3 days. The feeding and handling of animals have been approved by the Animal Care & Welfare Committee Institute of Materia Medica, CAMS & PUMC (Approval numbers: 00008485, 00008487, 00008963).
After 11 days of treatment, anatomical images of the intracranial tumor were acquired using an MRI scanner (PharmaScan 70/16 US, Bruker, Switzerland) on the nude mice. The parameters used in the scans to optimize gray/white matter contrast were as follows: a T2_TurboRARE, with TR/TE = 2795/35, 4 averages, 22 × 22 field-of-view, and 0.5 mm slice thickness. The scanning of all brains was completed in 25 sessions. The tumor volume was calculated using the sum of the areas in all images multiplied by the thickness of each slice (0.5 mm).

[4] = test system: U87 orthotopic glioma; set-up: method as in PMID 27495899; details: 6 mg/kg, 11 days of continuous treatment; cited from earlier work
[5] = test system: U87 cells; assay: CCK-8 cell proliferation assay, U87; assay type: cell-based; details: Homo sapiens, U-87 MG, 72 h, CCK-8, 72 h; read-out: IC50, U87 proliferation inhibition
Method: The effects on cell proliferation were measured using a CCK-8 assay kit. A total of 3 × 10^3 cells were seeded per well in 96-well plates and incubated for 24, 48, or 72 h after drug administration. After 10 μL of CCK-8 solution was added to each well and incubated at 37 °C for 1–2 h, the absorbance at OD450 was read with an enzyme marker. The data were recorded and analyzed by GraphPad Prism software (version 8.0.2). For the cell growth assay, 2 × 10^3 cells were seeded per well in 96-well plates (n = 5). Ten microlitres of CCK-8 reagent was added at a fixed time every day, and the OD450 was read after 2 h. The statistical data were analyzed, and cell growth curves were plotted after a continuous period of 7 days.

[6] = cited from earlier work
[7] = test system: NAD^+ in U87 cells; assay: Measurement of NAD+ levels in U87 cells; assay type: cell-based, human; details: 10 nmol/L, compared with PF403
Excerpt: NAD^+ is a coenzyme found in all cells and consists of both NAD^+ (oxidized) and NADH (reduced) forms. NAD^+ can be used to transfer electrons during redox reactions and as a substrate used by many enzymes to participate in intracellular reactions. We used an NAD^+/NADH assay kit (Beyotime, S0175, Shanghai, China) based on the WST-8 method to determine the NAD^+/NADH content. Cells in 6-well plates were collected and lysed with NAD^+/NADH extract on ice, and the supernatant was used as the sample to be tested. A control solution with a gradient concentration of NADH was prepared with a 10 mmol/L NADH standard. The supernatant from the sample was first aspirated and used to determine the total amount of NAD^+ and NADH. Subsequently, the sample was heated at 60 °C for 30 min to remove the NAD^+, after which the supernatant was collected to determine the NADH concentration. Ethanol dehydrogenase was added to each well, and the plate was incubated at 37 °C in the dark for 10 min. Then, 10 μL of chromogenic solution was added, and the plate was incubated for 30 min. Afterward, the absorbance at 450 nm was measured, and the content was calculated by comparison with the standard curve. The content of NAD^+ was calculated by subtracting the content of NADH from the total amount.

Compound: (13aS)-3-pivaloyloxyl-6,7-dimethoxyphenanthro[9,10-b] indolizidine [CAT3]
- inhibitory effect in terms of tumor weight ([1]; 6 mg/kg): 55.37%
- inhibitory effect based on tumor volume ([1]; 6 mg/kg): ~58.41%
- inhibitory effect in terms of tumor weight ([1]; 12 mg/kg): 63.18%
- inhibitory effect based on tumor volume ([1]; 12 mg/kg): ~67.59%
- expression of Ki67 in tumor (IHC) ([1]; after treatment, U87 xenograft): reduced
- body weight of the nude mice ([1]; due to gastrointestinal reaction): decreased slightly in the first week and then gradually recovered
- inhibitory effect on cell proliferation by tumor volume or weight ([2]; 6 mg/kg, i.g., daily for 14 days): no significant inhibitory effect
- expression of Ki67 in tumor (IHC) ([2]; effective dose (6 mg/kg), NAMPT-knockdown xenograft): not affected
- body weight ([2]; over 14 days, gastrointestinal side effects): slight decrease in body weight
- body weight of nude mice ([3]; early and middle stages of treatment): slight decrease in the body weight
- NAMPT knockdown tumor volume (MRI) ([3]; treatment group, 6 mg/kg orally once daily for 11 days, n = 12): 24.05 ± 13.99 mm^3
- inhibitory effect, orthotopic glioma model [4]: ~40%

Compound: COc1ccc2c3c(c4cc(OC)c(OC)cc4c2c1)CN1CCC[C@H]1C3 [CAT, (+)-Deoxytylophorinine]
- IC50 [5]: 23.4 nM
- blood–brain barrier penetration [6]: effectively cross the blood–brain barrier

Compound: O=C(/C=C/c1cccnc1)NCCCCC1CCN(C(=O)c2ccccc2)CC1 [FK866, (E)-Daporinad]
- inhibitory effect on intracellular NAD^+ content [7]: better inhibitory effect on intracellular NAD^+ content than PF403
